According to patent US12577341B2, “Copolymer derived from substituted benzopinacol and use of the same as polymerization initiator” (BASF COATINGS GMBH, priority 2020, dated 2026):

Key:
[1] = Dissolution of the initiator in the monomer solution (appearance of the resulted mixture); assay type: physicochemical
Experimental: A monomer solution was prepared by mixing 90 g of trimethylolpropane triacrylate (TMPTA) and 2 g of butyl glycol under stirring. 4 g of the copolymeric initiator system was added into the monomer solution and stirred under room temperature for 1 hour.
A monomer solution was prepared by mixing 90 g of TMPTA, 2 g of butyl glycol, 0.24 g of chloroform and 1.76 g solvent naphtha 160/180 under stirring. 1 g of benzopinacol fine powder was added into the monomer solution and stirred under room temperature for 1 hour.
A monomer solution was prepared by mixing 90 g of TMPTA and 10 g of butyl glycol under stirring. 1 g of fine benzopinacol fine powder was added into the monomer solution and stirred under room temperature for 1 hour.
A monomer solution was prepared by mixing 90 g of TMPTA and 10 g of butyl glycol by stirring. 1 g of the compound of formula (I) was added into the monomer solution and stirred under room temperature for 1 hour.

[2] = cited from earlier work
[3] = 1 g in 90 g TMPTA and 10 g butyl glycol, stirred at room temperature for 1 hour

Structure (SMILES) | Appearance of resulted mixture ([1]; 1 g fine powder in 90 g TMPTA, 2 g butyl glycol, 0.24 g chloroform and 1.76 g solvent naphtha 160/180, stirred at room temperature for 1 hour) | Appearance of resulted mixture [1, 3] | Solubility in common organic solvents [2]
OC(c1ccccc1)(c1ccccc1)C(O)(c1ccccc1)c1ccccc1 [benzopinacol, 1,1,2,2-tetraphenyl-1,2-ethanediol] | transparent liquid with suspended fine particles | transparent liquid with suspended fine particles | very poor solubility
C=CCOC(=O)c1ccc(C(O)(c2ccccc2)C(O)(c2ccccc2)c2ccc(C(=O)OCC=C)cc2)cc1 (stereo not shown) [compound of formula (I), allyloxycarbonyl substituted benzopinacol of formula (I)] | – | transparent liquid with suspended fine particles | –
